Assay results published in patent publication US20040110756A1, “New anthracene derivatives and their use as pharmaceutical preparations” (priority 2002, published 2004).
Converted amounts (≈) assume the structure as drawn. Read-outs that look alike come from different tables or passages of the source.

How the values were obtained:
Assay type in all cases: cell-based
[1] = test system: RKOp27 human colon carcinoma cells; assay: Cell cycle analysis by means of the RKOp27 model (XTT); details: for EC50: Homo sapiens, RKOp27, 45 h
Description: The substance of Example 2 was investigated in a proliferation test on established tumor cell lines for its anti-proliferative activity. The test used determines the cellular dehydrogenase activity and enables the cell vitality and, indirectly, the cell count to be determined. The cell lines used are the human cervix carcinoma cell line KB/HeLa (ATCC CCL17), the ovarian adenocarcinoma cell line SKOV-3 (ATCC HTB77), the human glioblastoma cell line SF-268 (NCI 503138) and the lung carcinoma cell line NCI-H460 (NCI 503473). Moreover, for investigating the effect of the substance specifically on the cell cycle, an RKOp27 cell system was used (M. Schmidt et al. Oncogene 19(20):2423-9, 2000). The RKO is a human colon carcinoma line, in which the cell cycle inhibitor p27^kip1 was expressed by means of the Ecdyson Expression System and can be brought to a cell cycle arrest in G2. A substance of nonspecific activity inhibits the proliferation independently of whether the RKO cell is or is not arrested in G1 or G2. On the other hand, cell cycle specific substances, such as tubulin inhibitors, are cytotoxic only when the cells are not arrested and passed through the cell cycle. In Table 2, the cytotoxic or growth-inhibiting activity of the compound described is shown with and without expression of p27^kip1.
(§1) The adherent, growing tumor cell lines KB/HeLa, SKOV-3, SF-268, NCI-H460, ASPC1, A172, A431, A549, DU145, C6, MDAMB435, HT29, PC3, T47D, U118MG and U373MG were cultured under standard conditions in the gassing incubator at 37° C., 5% CO2 and 95% relative humidity. […] Subsequently, the cell plates were incubated for a further 3 hours in a gassing incubator and the optical density (OD490 nm) was determined in the photometer. The percentage inhibition, relative to the control, is determined by means of the OD490 nm and plotted semi-logarithmically in the form of a concentration vs. activity curve. The EC50 is calculated from the concentration-activity curve by means of a regression analysis, using the Graphpad Prism program […]

[2] = test system: human cervix carcinoma cell line KB/HeLa; assay: XTT proliferation assay, KB/HeLa; details: KB/HeLa cells, 45 hours incubation
Description: (§2) The substance of Example 2 was investigated in a proliferation test on established tumor cell lines for its anti-proliferative activity. The test used determines the cellular dehydrogenase activity and enables the cell vitality and, indirectly, the cell count to be determined. The cell lines used are the human cervix carcinoma cell line KB/HeLa (ATCC CCL17), the ovarian adenocarcinoma cell line SKOV-3 (ATCC HTB77), the human glioblastoma cell line SF-268 (NCI 503138) and the lung carcinoma cell line NCI-H460 (NCI 503473). Moreover, for investigating the effect of the substance specifically on the cell cycle, an RKOp27 cell system was used (M. Schmidt et al. Oncogene 19(20):2423-9, 2000). […]
as §1, with “curve.” for “curve. The EC50 is calculated from the concentration-activity curve by means of a regression analysis, using the Graphpad Prism program”

[3] = test system: human glioma cell line U373; assay: XTT proliferation assay, U373MG; details: U373 MG, U373MG cells, average of two independent experiments
Description: (§3) For further characterization, substance 2 was investigated for its anti-proliferative effect using a panel of 12 human tumor cell lines. The cell lines used were the human glioma cell lines A172 (ATCC CRL-1620), U118 (ATCC HTB-15) and U373 (ATCC HTB-17), the rat glioma cell line C6 (ATCC CCL-107), the human lung carcinoma cell line A549, the human epidermoid carcinoma A431 (ATCC CRL-2592), the human prostate cancer cell lines DU145 (ATCC HTB-81) and PC3 (ATCC CRL-1435), the human colon adenocarcinoma cell line HT 29 (ATCC HTB-38), the human pancreas adenocarcinoma cell line ASPC1 (ATCC CRL-1682) and the human breast cancer cell lines T47D (ECACC 88062428) and MCAMB435 (NCI 914182). […]
as §1, with “curve.” for “curve. The EC50 is calculated from the concentration-activity curve by means of a regression analysis, using the Graphpad Prism program”

[4] = test system: human breast cancer cell line T47D; assay: XTT proliferation assay, T47D; details: T47D cells, average of two independent experiments
Description: as §3
as §1, with “curve.” for “curve. The EC50 is calculated from the concentration-activity curve by means of a regression analysis, using the Graphpad Prism program”

[5] = test system: human glioma cell line U118; assay: XTT proliferation assay, U118MG; details: U-118-MG, U118MG cells, average of two independent experiments
Description: as §3
as §1, with “curve.” for “curve. The EC50 is calculated from the concentration-activity curve by means of a regression analysis, using the Graphpad Prism program”

[6] = test system: human glioma cell line A172; assay: XTT proliferation assay, A172; details: A 172, A172 cells, average of two independent experiments
Description: as §3
as §1, with “curve.” for “curve. The EC50 is calculated from the concentration-activity curve by means of a regression analysis, using the Graphpad Prism program”

[7] = test system: human glioblastoma cell line SF-268; assay: XTT proliferation assay, SF-268; details: SF-268 cells, 45 hours incubation
Description: as §2
as §1, with “curve.” for “curve. The EC50 is calculated from the concentration-activity curve by means of a regression analysis, using the Graphpad Prism program”

[8] = test system: human pancreas adenocarcinoma cell line ASPC1; assay: XTT proliferation assay, ASPC1; details: ASPC1 cells, average of two independent experiments
Description: as §3
as §1, with “curve.” for “curve. The EC50 is calculated from the concentration-activity curve by means of a regression analysis, using the Graphpad Prism program”

[9] = test system: human breast cancer cell line MDA MB435; assay: XTT proliferation assay, MDA MB435; details: MDA-MB-435, MDA MB435 cells, average of two independent experiments
Description: as §3
as §1, with “curve.” for “curve. The EC50 is calculated from the concentration-activity curve by means of a regression analysis, using the Graphpad Prism program”

[10] = test system: human lung carcinoma cell line A549; assay: XTT proliferation assay, A549; details: A549 cells, average of two independent experiments
Description: as §3
as §1, with “curve.” for “curve. The EC50 is calculated from the concentration-activity curve by means of a regression analysis, using the Graphpad Prism program”

[11] = test system: human prostate cancer cell line PC3; assay: XTT proliferation assay, PC3; details: PC-3, PC3 cells, average of two independent experiments
Description: as §3
as §1, with “curve.” for “curve. The EC50 is calculated from the concentration-activity curve by means of a regression analysis, using the Graphpad Prism program”

[12] = test system: human colon adenocarcinoma cell line HT 29; assay: XTT proliferation assay, HT29; details: HT29 cells, average of two independent experiments
Description: as §3
as §1, with “curve.” for “curve. The EC50 is calculated from the concentration-activity curve by means of a regression analysis, using the Graphpad Prism program”

[13] = test system: rat glioma cell line C6; assay: XTT proliferation assay, C6; details: C6 rat glioma cells, average of two independent experiments
Description: as §3
as §1, with “curve.” for “curve. The EC50 is calculated from the concentration-activity curve by means of a regression analysis, using the Graphpad Prism program”

[14] = test system: ovarian adenocarcinoma cell line SKOV-3; assay: XTT proliferation assay, SKOV-3; details: Homo sapiens, SK-OV-3; SKOV-3 cells, 45 hours incubation
Description: as §2
as §1, with “curve.” for “curve. The EC50 is calculated from the concentration-activity curve by means of a regression analysis, using the Graphpad Prism program”

[15] = test system: lung carcinoma cell line NCI-H460; assay: XTT proliferation assay, NCI-H460; details: Homo sapiens; NCI-H460 cells, 45 hours incubation
Description: as §2
as §1, with “curve.” for “curve. The EC50 is calculated from the concentration-activity curve by means of a regression analysis, using the Graphpad Prism program”

[16] = test system: human prostate cancer cell line DU145; assay: XTT proliferation assay, DU145; details: DU-145, DU145 cells, average of two independent experiments
Description: as §3
as §1, with “curve.” for “curve. The EC50 is calculated from the concentration-activity curve by means of a regression analysis, using the Graphpad Prism program”

[17] = test system: human epidermoid carcinoma A431; assay: XTT proliferation assay, A431; details: A-431, A431 cells, average of two independent experiments
Description: as §3
as §1, with “curve.” for “curve. The EC50 is calculated from the concentration-activity curve by means of a regression analysis, using the Graphpad Prism program”

COc1cc(OC)cc(N2CCN(C(=O)c3c4ccccc4cc4ccccc34)CC2)c1 [Example 2, Anthracene-9-yl-[4-(3,5-dimethoxy-phenyl)-piperazine-1-yl]-methanone]
EC50 ([1]; read-out: XTT Proliferation Assay, EC50 RKOP27): 0.058 µg/mL (≈ 0.136 µM)
EC50 ([1]; read-out: XTT Proliferation Assay, EC50 RKOP27 ind.): > 3.16 µg/mL
cytotoxic activity in the induced state of p27kip1 ([1]; RKOp27 cells, p27kip1 induced): did not show any cytotoxic activity
EC50 [2]: 0.048 µg/mL (≈ 0.113 µM)
EC50 [3]: 0.057 µg/mL (≈ 0.134 µM)
EC50 [4]: 0.022 µg/mL (≈ 0.0516 µM)
EC50 [5]: 0.059 µg/mL (≈ 0.138 µM)
EC50 [6]: 0.046 µg/mL (≈ 0.108 µM)
EC50 [7]: 0.043 µg/mL (≈ 0.101 µM)
EC50 [8]: 0.11 µg/mL (≈ 0.258 µM)
EC50 [9]: 0.054 µg/mL (≈ 0.127 µM)
EC50 [10]: 0.066 µg/mL (≈ 0.155 µM)
EC50 [11]: 0.049 µg/mL (≈ 0.115 µM)
EC50 [12]: 0.061 µg/mL (≈ 0.143 µM)
EC50 [13]: 0.17 µg/mL (≈ 0.399 µM)
EC50 [14]: 0.047 µg/mL (≈ 0.11 µM)
EC50 [15]: 0.054 µg/mL (≈ 0.127 µM)
EC50 [16]: 0.045 µg/mL (≈ 0.106 µM)
EC50 [17]: 0.044 µg/mL (≈ 0.103 µM)
